Data published in patent publication US20130336988A1, “METHODS FOR TREATING EARLY STAGE OR MILD NEUROLOGICAL DISORDERS” (NEW YORK UNIVERSITY, priority 2010, published 2013).

Legend:
[1] = test system: E15 DIV3 mouse hippocampal neurons; assay: Pretreatment with antibodies or inhibitors before proNGF addition, growth cone / filopodial collapse; assay type: cell-based; conditions: for effect of pretreatment on proNGF-induced growth cone / filopodial collapse: pretreatment before proNGF for 20 min, 20 μg/ml antibody or control IgG 20 min, 100 nM Gö6976
Protocol: (§1) To assay which pathways are involved in filopodial collapse, 5-10 ng/ml proNGF, 10 ng/ml proBDNF, 25-50 ng/ml BDNF (Peprotech) or 25-100 ng/ml NGF (Harlan) was added to E15 primary hippocampal neurons for 20 min before fixation. In some cases, cells were pretreated with 100 nM K-252a (Calbiochem) for 20 min, 100 nM Gö6976 (Calbiochem) for 1 hour, 5 μM EHT1864 (Sigma) for 30 min or 100 nM ITX3 (ChemBridge Corporation, cat. no. 6007262) for 45 min. To block SorCS2, cells were incubated with 20 μg/ml anti-SorCS2 or control IgG for 20 min on ice before proNGF addition at 37° C.
(§2) DIV3 hippocampal neurons were fixed in 4% paraformaldehyde/20% sucrose for 10 min. The fixative was quenched with 50 mM NH4Cl in PBS for 5 min and cells were permeabilized with 0.1% TritonX-100 in PBS for 2 min. Alternatively, cells were fixed with ice-cold methanol for 5 min. Coverslips were blocked with 10% normal donkey serum, 2% bovine serum albumin and 0.25% fish skin gelatin in Tris-buffered saline for 30 min, incubated with primary antibodies diluted in blocking solution for 30 min, washed three times with Tris-buffered saline/0.25% fish skin gelatin, incubated with secondary antibodies mixed with Hoechst in blocking buffer for additional 30 min, washed and mounted using Mowio1488. Cells were imaged using a LSM510 laser-scanning confocal microscope equipped with a 40× Plan Neofluor NA1.3 DIC oil-immersion objective (Carl Zeiss Microimaging). Images were processed using LSM510 software (Zeiss) and ImageJ (NIH).
(§3) Primary hippocampal and cortical neurons were isolated from E15 C57BL/6 mouse embryos as previously described (PEREIRA, D. B. et al., Journal of Neuroscience 27:4859-4869 (2007)). Briefly, neurons were dissociated by incubation with 0.05% trypsin at 37° C. for 8 min followed by trituration with fire-polished glass Pasteur pipettes. Cells were plated on poly-D-lysine coated dishes and grown in Neurobasal medium containing B27, 0.5 mM glutamine (all Invitrogen) and 10 μM 5-fluorodeoxyuridine. Hippocampal neurons were transfected at DIV2 using Lipofectamine2000 (Invitrogen). For coverslips in a 24-well plate, 0.5 μg plasmid were mixed with 0.5 μl Lipofectamine2000, and for glass bottom dishes, 1.5 μg plasmid were mixed with 1.5 μl Lipofectamine2000. The complexes were added to the cells for 30-45 min, and then neurons were placed back into preconditioned media until analysis the following day. HT1080 cells were grown in DMEM/10% fetal bovine serum (both Invitrogen) and transfected using the AMAXA nucleofector (Lonza) according to manufacturer's instructions. 293FT cells were grown in DMEM/10% fetal bovine serum and transfected with Lipofectamine2000 according to manufacturer's instructions.

[2] = test system: E15 DIV3 mouse hippocampal neurons; assay: proNT-induced growth cone collapse in cultured hippocampal neurons (live imaging and immunofluorescence); assay type: cell-based; conditions: for growth cone collapse caused by the inhibitor alone: DIV3 hippocampal neurons, 5 μM EHT1864 30 min, 100 nM ITX3 45 min
Protocol: as §1, §2
Cells were plated on gridded glass bottom dishes (MatTek Corporation) and imaged at DIV3 in phenol red-free Neurobasal medium (Invitrogen) supplemented with 30 mM HEPES-NaOH, pH7.4 using an Olympus IX71 inverted microscope driven by IPLab software (BD Biosciences) and equipped with a 60× PlanApoN objective (NA 1.42), a Hamamatsu EM-CCD camera and a heated stage maintained at 37° C., or driven by softWoRX software (version 3.7.1, DeltaVision), and equipped with a CoolSnap HQ2 camera (Photometrics) and an environmental chamber maintained at 37° C. Images were taken every 15 seconds. After live imaging cells were fixed, counterstained for p75, located by grid number and examined for p75 expression. All movies were exported and processed using IPLab (BD Biosciences), softWoRX (version 3.7.1, DeltaVision) and ImageJ (NIH) software. Filopodia length and speed were both analyzed using ImageJ (NIH) software. For this, two times ten consecutive frames, spaced 5-10 min apart, were analyzed before and again after treatment. In the length analysis, a line was drawn along an individual filopodium and measured at every time point, and the measurements were averaged before and after treatment. For the speed analysis, the filopodial tip was tracked using the ImageJ Manual Tracking plugin. Up to four individual filopodia were analyzed per movie, and a minimum of four movies taken from separate experiments were analyzed per condition.
as §3, with “HT1080 cells were grown in DMEM/10% fetal bovine serum (both Invitrogen) and transfected using the AMAXA nucleofector (Lonza) according to manufacturer's instructions. 293FT cells were grown in DMEM/10% fetal bovine serum and transfected with Lipofectamine2000 according to manufacturer's instructions.” left out

[3] = test system: Rac; assay: Rac activity assay (GST-Pak-CRIB pull-down of activated Rac); assay type: cell-based, mouse; conditions: primary neuronal cultures
Protocol: Rac activity assays were performed as described previously (NEUBRAND, V. E. et al., Journal of Cell Science 123:2111-2123 (2010)). […] Cells were lysed in lysis buffer supplemented with 10 mM MgCl, lysates were cleared by centrifugation at 9000 g for 1 min, and cleared lysates were incubated with GST or GST-Pak-CRIB beads for 30 min at 4° C. Beads were washed and isolated active Rac was analyzed by Western blot. As a control, extra lysates were incubated with 0.1 mM GDP or 0.1 mM GTPγS for 30 min at room temperature before incubation with GST-Pak-CRIB beads. Western blots were analyzed by densitometry using ImageJ software, and isolated active Rac was normalized to the input.
GST and GST-Pak-CRIB proteins were expressed in E. coli BL21DE3 cells at 25° C. for 3 hours. Bacteria were disrupted by incubation with PBS supplemented with lysozyme on ice for 30 min and subsequent addition of 1 mM MgCl2, 0.1% TritonX-100 and 0.1 mg/ml DNAse for an additional 30 min. Bacterial lysates were cleared by centrifugation for 5 min at 3000 g and cleared lysates were incubated with glutathione sepharose. Beads were washed and the purity of the recombinant proteins was analyzed by Coomassie blue staining. 20 μg of sepharose coupled purified protein was used per reaction.

Row | Molecule | effect of pretreatment on proNGF-induced growth cone / filopodial collapse [1] | growth cone collapse caused by the inhibitor alone [2] | other results
1 | 20-28: small peptide inhibitor 20-28 (of PKC) (FARKGALRQ; UniProt P17252 20-28, looked up, fragment) | exposure to proNGF failed to induce collapse of actin-rich structures | – | –
2 | O=c1cc(CN2CCOCC2)occ1OCCCCCSc1ccnc2cc(C(F)(F)F)ccc12 [EHT 1864, reference compound] | – | led to the collapse of growth cone structures | Rac activity after inhibitor treatment [3]: striking decrease in Rac activity
3 | Cn1c2ccccc2c2c3c(c4c5ccccc5n(CCC#N)c4c21)CNC3=O [Gö6976] | exposure to proNGF failed to induce collapse of actin-rich structures | – | effect of the agent alone on neuronal / actin morphology ([1]; agent alone, without proNGF): had no effect on actin morphology
4 | Cc1cc(/C=c2/sc3nc4ccccc4n3c2=O)c(C)n1-c1ccccc1 [ITX3, reference compound] | – | led to the collapse of growth cone structures | Rac activity after inhibitor treatment [3]: striking decrease in Rac activity
5 | C[C@@H](N)[C@H]1CC[C@H](C(=O)Nc2ccncc2)CC1 [Y-27632, reference compound] | nor did they interferen with proNGF-mediated growth cone collapse | neither induced growth cone collapse | –
6 | C3 transferase [reference compound] | nor did they interferen with proNGF-mediated growth cone collapse | neither induced growth cone collapse | –
7 | NGF: mature nerve growth factor (Harlan) (protein, UniProt P01139 122-241, looked up) Beta-nerve growth factor: SSTHPVFHMGEFSVCDSVSVWVGDKTTATDIKGKEVTVLAEVNINNSVFRQYFFETKCRASNPVESGCRGIDSKHWNSYCTTTHTFVKALTTDEKQAAWRFIRIDTACVCVLSRKATRRG | – | – | growth cone collapse ([2]; p75NTR-positive cells, 20 min exposure, 10 ng/ml proNGF, 10 ng/ml proBDNF with K252a, 5 ng/ml NGF): nor did NGF lead to actin rearrangements
